{"source": "patent EP0305400B1", "about": "“A COMPOSITION HAVING REDUCED NEPHROTOXICITY COMPRISING A FATTY ACID CONTAINING COMPONENT AND CYCLOSPORINE” (BRIGHAM AND WOMEN'S HOSPITAL, priority 1986, dated 1987)", "origin": "cited, not measured here", "tested_on": "Tx synthetase", "conditions": "rats treated with CSA", "data": [{"compound": "Cc1c(Cn2ccnc2)c2ccccc2n1CCC(=O)O", "note": "[UK-38,485]", "values": [{"measurement": "glomerular filtration rate (GFR)", "value": "improved"}, {"measurement": "urinary TxB2 levels", "value": "comparable to control levels"}]}]}
